The values that follow come from patent publication US20130252930A1 (BIOMARIN PHARMACEUTICAL INC., priority 2010, published 2013).

The inhibition is how much of the control response was suppressed. The term IC50 denotes the concentration that gives 50% inhibition.

Where two headings read alike, the source gives them in different places.

Test [1] concerns the target T1, CYP17 (human testicular microsome) (Homo sapiens, UniProt P05093).
T1 construct: using microsomal fraction from human testis (Celsis Cat #S00110) as the enzyme source; tissue Celsis S00110; host or cells: human testis microsomal fraction
T1 sequence (P05093 1-508): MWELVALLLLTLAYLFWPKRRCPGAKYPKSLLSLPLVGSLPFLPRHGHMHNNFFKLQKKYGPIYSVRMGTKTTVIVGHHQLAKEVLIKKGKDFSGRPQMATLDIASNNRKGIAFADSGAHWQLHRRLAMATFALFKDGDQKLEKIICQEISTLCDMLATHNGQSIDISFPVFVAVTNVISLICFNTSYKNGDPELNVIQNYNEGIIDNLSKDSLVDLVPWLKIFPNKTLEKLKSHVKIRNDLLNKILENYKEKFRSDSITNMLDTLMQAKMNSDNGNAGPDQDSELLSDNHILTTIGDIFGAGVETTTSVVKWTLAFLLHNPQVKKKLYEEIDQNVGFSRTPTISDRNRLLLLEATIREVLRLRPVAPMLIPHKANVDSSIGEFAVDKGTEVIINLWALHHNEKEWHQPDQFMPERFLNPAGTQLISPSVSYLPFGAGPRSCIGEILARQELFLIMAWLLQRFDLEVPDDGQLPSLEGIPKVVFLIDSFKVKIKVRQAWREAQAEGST
As to the kind of experiment: CYP17 enzymatic assay (% inhibition at 1 nM) (Biological Example 12). Format: biochemical.

The target of test [2] is T1, CYP17 (human testicular microsome). As to the kind of experiment: CYP17 enzymatic assay (IC50) (Biological Example 4). As to conditions: human testicular microsome. Format: biochemical.
Method: The assays were performed in 96-well plates. Typical assays were carried out in total 100 μL volume that included test compounds at designated concentrations, 1× reaction buffer, 0.5 mM NADPH, 1 μM 17α-hydroxypregnenolone, and 2.5 μL of diluted human testicular microsome (Celsis. Cat #S00110). Reaction without test compound served as positive control. Reactions were allowed to incubate at 37° C. for 90 minutes with gentle shaking. The reaction was stopped by directly applying the enzymatic reaction mixture to ELISA plate for evaluation of DHEA concentration according to manufacturer's protocol (IBL America). A standard curve (OD450 vs. DHEA concentration) was generated using purified DHEA.
[3] abbreviates: compound at 1 nM, read-out: Biological Example No. 12: CYP17 enzymatic assay % inhibition at 1 nM.
The mark [4] stands for this setting: read-out: Biological Example No. 4: CYP17 enzymatic assay IC50.
[5] abbreviates: compound at 1 nM, read-out: CYP17 enzymatic assay % inhibition at 1 nM (Biological Example No. 12).
[6] abbreviates: read-out: CYP17 enzymatic assay IC50 (Biological Example No. 4).
Where [7] appears, read: test compound at 1 nM, read-out: CYP17 enzymatic assay percent inhibition at 1 nM (Biological Example No. 12).

Regarding `CC1=C2CC[C@@H]3[C@H](CC[C@]4(C)C(c5cccnc5)=CC[C@@H]34)[C@@]2(C)CCC1O` (mixture of isomers) [Compound 302, (10R,13S)-4,10,13-trimethyl-17-(pyridin-3-yl)-2,3,6,7,8,9,10,11,12,13,14,15-dodecahydro-1H-cyclopenta[a]phenanthren-3-ol], in test [1] (setting [3]), the inhibition at 0.001 µM was in the range of 10 to 50%. Further, the IC50 in test [2] (setting [4]) was below 11 nM. For `CC(=O)O[C@H]1CC[C@@]2(C)C(=CC[C@H]3C4=CC=C(n5ccnc5)[C@@]4(C)CC[C@@H]32)C1` [Compound 73, (3S,10R,13S)-17-(1H-imidazol-1-yl)-10,13-dimethyl-2,3,4,7,8,9,10,11,12,13-decahydro-1H-cyclopenta[a]phenanthren-3-yl acetate], the IC50 in test [2] (DHEA by ELISA, read-out: Biological Example No. 4: CYP17 enzymatic assay IC50) is below 11 nM.

As to `C[C@]12CC[C@@H](NC(=O)C3CCC3)CC1=CCC1C2CC[C@]2(C)C(c3cccnc3)=CCC12` (stereo partly drawn) [Compound 226, N-((3R,10R,13S)-10,13-dimethyl-17-(pyridin-3-yl)-2,3,4,7,8,9,10,11,12,13,14,15-dodecahydro-1H-cyclopenta[a]phenanthren-3-yl)cyclobutanecarboxamide], in test [1] (setting [5]), the inhibition at 0.001 µM was above 50%. In addition, the IC50 in test [2] (setting [6]) is below 11 nM.

For the compound `Cc1cncc(C2=CC[C@H]3[C@@H]4CC=C5C[C@H](NC(=O)C6CC6)CC[C@]5(C)[C@H]4CC[C@]23C)c1` [Compound 227, N-((3R,10R,13S)-10,13-dimethyl-17-(5-methylpyridin-3-yl)-2,3,4,7,8,9,10,11,12,13,14,15-dodecahydro-1H-cyclopenta[a]phenanthren-3-yl)cyclopropanecarboxamide], the inhibition at 0.001 µM in test [1] (setting [5]) is above 50%. In addition, in test [2] (setting [6]), the IC50 is below 11 nM. Taken in the same sequence, the figures for `CC1=C2CCC3C4=CC=C(c5cccnc5)[C@@]4(C)CCC3[C@@]2(C)CCC1O` (stereo partly drawn) [Compound 299, (10R,13S)-4,10,13-trimethyl-17-(pyridin-3-yl)-2,3,6,7,8,9,10,11,12,13-decahydro-1H-cyclopenta[a]phenanthren-3-ol] were below 10% and below 11 nM. As to `C[C@]12CC[C@H]3[C@@H](CC(F)C4(O)CC(=O)CC[C@]34C)[C@@H]1CC=C2c1cccnc1` (stereo partly drawn) [Compound 310e, (10R,13S)-6-fluoro-5-hydroxy-10,13-dimethyl-17-(pyridin-3-yl)-4,5,6,7,8,9,10,11,12,13,14,15-dodecahydro-1H-cyclopenta[a]phenanthren-3(2H)-one], the inhibition at 0.001 µM in test [1] (setting [3]) is above 50%. In test [2] (setting [4]), the IC50 is below 11 nM.

Regarding `C[C@]12CC[C@H]3[C@@H](CC(F)C4(O)CC(=O)CC[C@]34C)[C@@H]1CC=C2c1cncc(F)c1` (stereo partly drawn) [Compound 324, (10R,13S)-6-fluoro-17-(5-fluoropyridin-3-yl)-5-hydroxy-10,13-dimethyl-4,5,6,7,8,9,10,11,12,13,14,15-dodecahydro-1H-cyclopenta[a]phenanthren-3(2H)-one], in test [1] (setting [3]), the inhibition at 0.001 µM was above 50%. Also, the IC50 in test [2] (setting [4]) is below 11 nM. Regarding `C[C@]12CCC3C(CCC4CC(F)(F)CC[C@@]43C)C1=CC=C2c1cncc(F)c1` (stereo partly drawn) [Compound 402, 3-((10S,13S)-3,3-difluoro-10,13-dimethyl-2,3,4,5,6,7,8,9,10,11,12,13-dodecahydro-1H-cyclopenta[a]phenanthren-17-yl)-5-fluoropyridine], the IC50 in test [2] (setting [4]) is above 25 nM.

In the case of `C[C@]12CCC3C(CCC4CC(F)(F)CC[C@@]43C)C1=CC=C2c1cccnc1` (stereo partly drawn) [Compound 403, 3-((10S,13S)-3,3-difluoro-10,13-dimethyl-2,3,4,5,6,7,8,9,10,11,12,13-dodecahydro-1H-cyclopenta[a]phenanthren-17-yl)pyridine], the IC50 in test [2] (setting [4]) was below 11 nM.

Turning to `C[C@]12CCC(F)(F)CC1CCC1C2CC[C@]2(C)C(c3cccnc3)=CCC12` (stereo partly drawn) [Compound 404, 3-((10S,13S)-3,3-difluoro-10,13-dimethyl-2,3,4,5,6,7,8,9,10,11,12,13,14,15-tetradecahydro-1H-cyclopenta[a]phenanthren-17-yl)pyridine], the IC50 in test [2] (setting [4]) is below 11 nM. In the case of `C[C@]12CCC(F)(F)CC1CCC1C2CC[C@]2(C)C(c3cncc(F)c3)=CCC12` (stereo partly drawn) [Compound 405, 3-((10S,13S)-3,3-difluoro-10,13-dimethyl-2,3,4,5,6,7,8,9,10,11,12,13,14,15-tetradecahydro-1H-cyclopenta[a]phenanthren-17-yl)-5-fluoropyridine], the IC50 in test [2] (setting [6]) is above 25 nM. Same read-out and setting: then `C[C@]12CCC(F)(F)CC1CCC1C2CC[C@]2(C)C(n3ccnc3)=CCC12` (stereo partly drawn) [Compound 406, 1-((10S,13S)-3,3-difluoro-10,13-dimethyl-2,3,4,5,6,7,8,9,10,11,12,13,14,15-tetradecahydro-1H-cyclopenta[a]phenanthren-17-yl)-1H-imidazole], with below 11 nM. In the case of `C[C@]12CC[C@H](O)CC1CCC1C2CC[C@]2(C)C(c3cccnc3)CCC12` (stereo partly drawn) [Compound 473, (3S,10S,13S)-10,13-dimethyl-17-(pyridin-3-yl)hexadecahydro-1H-cyclopenta[a]phenanthren-3-ol], the inhibition at 0.001 µM in test [1] (setting [5]) was below 10%.

As for `C[C@]12CCC3(CO3)CC1CCC1C2CC[C@]2(C)C(c3cccnc3)=CCC12` (stereo partly drawn) [Compound 475, 3-((10S,13S)-10,13-dimethyl-1,2,4,5,6,7,8,9,10,11,12,13,14,15-tetradecahydrospiro[cyclopenta[a]phenanthrene-3,2′-oxiran]-17-yl)pyridine], the inhibition at 0.001 µM in test [1] (setting [3]) was in the range of 10 to 50%. On the same count and under the same terms, then `C[C@]12CCC3(CCC(=O)O3)CC1CCC1C2CC[C@]2(C)C(c3cccnc3)=CCC12` (stereo partly drawn) [Compound 477, (10S,13S)-10,13-dimethyl-17-(pyridin-3-yl)-1,2,4,5,6,7,8,9,10,11,12,13,14,15-tetradecahydro-3′H-spiro[cyclopenta[a]phenanthrene-3,2′-furan]-5′(4′H)-one], with below 10%; and `CCNC(=O)N[C@@H]1CC[C@@]2(C)C(=CCC3C2CC[C@]2(C)C(c4cncc(F)c4)=CCC32)C1` (stereo partly drawn) [Compound 478, 1-ethyl-3-((3R,10R,13S)-17-(5-fluoropyridin-3-yl)-10,13-dimethyl-2,3,4,7,8,9,10,11,12,13,14,15-dodecahydro-1H-cyclopenta[a]phenanthren-3-yl)urea], with 10 to 50%. Take `C[C@]12CCNC(=O)CC1CCC1C2CC[C@]2(C)C(c3cncc(F)c3)=CCC12` (stereo partly drawn) [Compound 481, (5aS,7aS)-8-(5-fluoropyridin-3-yl)-5a,7a-dimethyl-4,5,5a,5b,6,7,7a,10,10a,10b,11,12,12a-tetradecahydrocyclopenta[5,6]naphtho[1,2-d]azepin-2(1H)-one]: the “Biological Example No. 12: CYP17 enzymatic assay % inhibition at 1 nM” value in test [1] (compound at 1 nM) is given as “N (N means the compound had a percent inhibition of greater than or equal to 10% but less than 50%)”.

As to `C[C@]12CCNC(=O)CC1CCC1C2CC[C@]2(C)C(c3cncc(C(F)F)c3)=CCC12` (stereo partly drawn) [Compound 483, (5aS,7aS)-8-(5-(difluoromethyl)pyridin-3-yl)-5a,7a-dimethyl-3,4,5,5a,5b,6,7,7a,10,10a,10b,11,12,12a-tetradecahydrocyclopenta[5,6]naphtho[1,2-d]azepin-2(1H)-one], the inhibition at 0.001 µM in test [1] (setting [3]) is above 50%. With `Cc1ccncc1C1=CC[C@H]2[C@@H]3CC[C@H]4CNC(=O)CC[C@]4(C)[C@H]3CC[C@]12C` [Compound 484, (5aR,5bS,7aS,10aS,10bR,12aR)-5a,7a-dimethyl-8-(4-methylpyridin-3-yl)-1,2,5,5a,5b,6,7,7a,10,10a,10b,11,12,12a-tetradecahydrocyclopenta[5,6]naphtho[2,1-c]azepin-3(4H)-one], the inhibition at 0.001 µM in test [1] (setting [7]) is 10 to 50%. Still for that read-out and setting: then `Cc1ccncc1C1=CC=C2C3CCC4C[C@@H](O)CC[C@]4(C)C3CC[C@]12C` (stereo partly drawn) [Compound 485, (3S,10S,13S)-10,13-dimethyl-17-(4-methylpyridin-3-yl)-2,3,4,5,6,7,8,9,10,11,12,13-dodecahydro-1H-cyclopenta[a]phenanthren-3-ol], with 10 to 50%. Regarding `Cc1ccncc1C1=CC=C2C3CCC4CC(=O)CC[C@]4(C)C3CC[C@]12C` (stereo partly drawn) [Compound 486, (10S,13S)-10,13-dimethyl-17-(4-methylpyridin-3-yl)-4,5,6,7,8,9,10,11,12,13-decahydro-1H-cyclopenta[a]phenanthren-3(2H)-one], the inhibition at 0.001 µM in test [1] (setting [7]) was in the range of 10 to 50%. For `CCc1ccncc1C1=CC=C2C3CCC4C[C@@H](OC(C)=O)CC[C@]4(C)C3CC[C@]12C` (stereo partly drawn) [Compound 487, (3S,10S,13S)-17-(4-ethylpyridin-3-yl)-10,13-dimethyl-2,3,4,5,6,7,8,9,10,11,12,13-dodecahydro-1H-cyclopenta[a]phenanthren-3-yl acetate], in test [1] (setting [7]), the inhibition at 0.001 µM fell in the range of 10 to 50%. Regarding `CCc1ccncc1C1=CC=C2C3CCC4CC(=O)CC[C@]4(C)C3CC[C@]12C` (stereo partly drawn) [Compound 488, (10S,13S)-17-(4-ethylpyridin-3-yl)-10,13-dimethyl-4,5,6,7,8,9,10,11,12,13-decahydro-1H-cyclopenta[a]phenanthren-3(2H)-one], the inhibition at 0.001 µM in test [1] (setting [7]) was in the range of 10 to 50%.
